Assay results published in patent publication US12440471B2, “Compositions and methods for the treatment of bronchopulmonary dysplasia (BPD) and BPD-associated pulmonary hypertension” (AyuVis Research, Inc., priority 2021, dated 2025).
Read-outs that look alike come from different tables or passages of the source.

Key:
[1] = system: Primary splenocytes of C57BL/6J mice; assay: Polarization of mouse primary splenocytes, FACS; type: cell-based
Experimental: Primary splenocytes of C57BL/6J mice (n=3-5) were treated of AVR 48 for 72 hrs. PMA (200 ng/mL) was used as a positive control. The cells were washed and stained for CD11b and MHC-II and were analyzed by FACS. Dead cells were excluded by Live/dead staining during analysis. It was observed that the expression levels of MHC-II and CD11b increased upon AVR48 stimulation in a dose dependent manner in splenocytes. Monocytes were further analyzed for Ly6c. As described by (Swirski et al, J Clin Invest, 2007, 117(1):195-205. doi: 10.1172/JCI29950), spleen cells with LY6c Hi are considered as inflammatory whereas Ly6c low as resident and anti-inflammatory (FIG. 24A). Next, live singlet cells that were CD11b hi and CD11c low, were gated for F4/80 and MHC-II expression. Cells having increased expression of F4/80 and MHC-II were considered as macrophages whereas cells having low expression of F4/80 were considered as monocytes.

[2] = Safety profile of AVR-48 in mice or rat pups (IV, SC, IN; MTD/NOAEL); type: in vivo; conditions: C57BL/6J (mouse), Sprague Dawley Crl:CD (rat), mouse, rat, in vivo; for MTD at 3 days: read-out: maximum tolerated dose (MTD); for NOAEL at 3 days: read-out: no-observed-adverse-effect level (NOAEL)
Experimental: (§1) Safety Profile of AVR-48. To assess the safety of AVR-48 (compound 8), two doses of intravenous (IV) slow bolus injections or subcutaneous (SC) injections or intranasal (IN) instillation were given to mice or rat pups (postnatal day 3-5 or P3-P5), >6 h apart. The total daily doses were up to 100 mg/kg/day IV, and up to 150 mg/kg/day SC, for 3 consecutive days. […] There was no change in any of the hematological or clinical chemistry parameters. Signs of discoloration, swelling, and macroscopic and microscopic signs of local irritation occurred at the site of administration in all treatment groups and were attributed to the administration vehicle (formulation of 10% DMSO, 20% Tetraglycol, and 20% PEG 400 in sterile water). […] Based on the parameters monitored in this study, the maximum tolerated dose (MTD) and no-observed-adverse-effect level (NOAEL) were considered to be 100 mg/kg/day via IV and 150 mg/kg/day via SC routes of dosing.
(§2) Animals. C57BL/6J mice were purchased from The Jackson Laboratory (Bar Harbor, ME, USA) and were maintained in a breeding colony at Drexel University, Philadelphia, PA, USA. Animal procedures were performed in accordance with the NIH Guide for the Care and Use of Laboratory Animals and were approved by the Institutional Animal Care and Use Committee (IACUC) of Drexel University Philadelphia, PA (Protocol No. 20706). Neonatal rat pups born from female pregnant Sprague Dawley Crl:CD (SD) rats (Charles River Laboratories, St-Constant, QC, Canada) were used for the toxicology and PK studies to evaluate safety, determine the maximum tolerated dose (MTD) and the PK profile of AVR-48. A minimum 6-day acclimation period was allowed between receipt of the animals and the start of treatment to accustom the rats to the laboratory environment. All rat studies were approved by the IACUC of ITR Laboratories, Canada (Protocol No. 74691).
(§3) Formulation of AVR-48 for efficacy and toxicokinetic studies. For the mouse dose response efficacy studies, AVR-48 was reconstituted in 0.9% sterile normal saline to give a final dose concentration of […] as a colorless solution, and injected IP (30 μl) on P2 and P4. The PLGA encapsulated AVR-48 or the GFP-tagged analog was resuspended in deionized sterile water to make a nanosuspension with final dose concentration of 0.025, 0.05 and 0.11 mg/kg/drop. The surfactant Curosurf® (Cheisi Parma, Italy), available commercially, was delivered IN at a volume of 3 μl per nostril, on P2 and P4. For the toxicokinetic study of AVR-48 in rat pups, a formulation of 10% DMSO, 20% tetraglycol, 20% PEG 400, and 50% sterile water was made fresh before administration (Shah, Das et al. 2021).
(§4) Statistical Analysis. All statistical analyses were performed using Graph Pad Prism version 7.0 (GraphPad Software, San Diego, CA). The data are expressed as the mean±SEM with n=5 to 7 mice in each group. Groups were compared with the two-tailed unpaired t-test and one- or two-way analysis of variance (ANOVA), as appropriate. P<0.05 was considered statistically significant. For the toxicology and PK study, a generalized Analysis of Variance/Covariance (ANOVA/ANCOVA) test was performed on the numerical data (3 or more animals/groups) on the study as follows: An automatic transformation was used to analyze the data for homogeneity of variance using Levene's test. Parametric and non-parametric trends were analyzed using the Williams and the Shirley-Williams tests, respectively. Homogeneous data was analyzed using the ANOVA/ANCOVA, and the significance of intergroup differences between the control and test item-treated groups was analyzed using Dunnett's test. Heterogeneous data was analyzed using Kruskal-Wallis test and the significance of intergroup differences between the control and test item-treated groups was assessed using a nonparametric Dunnett's test. All data are reported as ±SEM. […]

mice or rat pups = assay: as above; type: in vivo
Experimental: as §1, §2, §3, §4

CC(=O)N[C@@H]1C(Oc2ccc([N+](=O)[O-])cc2)OC(CO)C(O)C1O (stereo partly drawn) [AVR-48]
resident/anti-inflammatory macrophages (Ly6c hi/low) ([1]; 48-72 h): produces more resident/anti-inflammatory macrophages
expression level of CD11b ([1]; 72 hrs, dose dependent manner): increased
expression level of MHC-II ([1]; 72 hrs, dose dependent manner): increased
MTD at 3 days ([2]; iv): 100 mg/kg/day
NOAEL at 3 days ([2]; iv): 100 mg/kg/day
MTD at 3 days ([2]; sc): 150 mg/kg/day
NOAEL at 3 days ([2]; sc): 150 mg/kg/day
toxic effects in the visceral organs (mice or rat pups; high dose of 100 mg/kg): did not have any toxic effects
hematological or clinical chemistry parameters (mice or rat pups; in vivo): no change
therapeutic index (mice or rat pups; juvenile mouse, minimum efficacious dose 5 mg/kg/day vs NOAEL 100 mg/kg/day): 20 fold
systemic gross observations at necropsy in the visceral organs (mice or rat pups; mouse and rat pups): no evidence of any AVR-48 related systemic gross observations
white blood cell count, lymphocyte count (females only), total bilirubin (SC groups only) (mice or rat pups; treated animals, considered non-adverse, not dose dependent): slight decrease
injection site findings (mice or rat pups; twice daily IV at 50 mg/kg/dose vs vehicle IV): higher incidence of dermal/subcutaneous hemorrhage at the injection site
tolerability of all doses (mice or rat pups; two doses/day >6 h apart, up to 100 mg/kg/day IV, up to 150 mg/kg/day SC, 3 consecutive days, P3-P5 pups): well tolerated
adverse clinical signs and body weight (mice or rat pups; up to 100 mg/kg/day IV, up to 150 mg/kg/day SC, 3 days): no observed adverse clinical signs and or any change in body weight
